Results taken from patent US6914045B2, “Glycopeptide antibiotics” (Wyeth Holdings Corporation, priority 2001, dated 2005).

What was measured:
Assay in all cases: in vitro antibacterial evaluation, MIC by broth dilution
Assay type in all cases: cell-based
Streptococcus sp. = conditions: broth dilution, 18 hours at 35° C.
Summary of the method: (§1)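 Broth dilution per NCCLS standard M7-A2 in Muller-Hinton II […], with an inoculum of 5×10^5 CFU/mL and antibiotic spanning 64-0.06 μg/mL. The MIC is the lowest concentration that inhibits growth of the organism.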

Enterococcus sp. = conditions: broth dilution, 18 hours at 35° C.
Summary of the method: as §1

Staphylococcus sp. = conditions: broth dilution, 18 hours at 35° C.
Summary of the method: as §1

Escherichia coli = conditions: 18 hours at 35° C.

CC(c1ccccc1)C1NC(=O)CNC(=O)C(CO)NC(=O)C(C(O)C2CN(c3ncccn3)C(=N)N2C2OC(CO)C(O)C(O)C2O)NC(=O)C(C(O)C2CNC(=Nc3ncccn3)N2)NC(=O)C(Cc2ccc(OC3OC(CO)C(OC4OC5COC6(OC5C(O)C4O)C4CC5CC(C4)CC6C5)C(O)C3O)cc2)NC1=O (stereo not drawn) [Example 228]
32 µg/mL: MIC Enterococcus faecalis (ATCC 29212) (Enterococcus sp.) | MIC Enterococcus faecalis (GC 2242) (Enterococcus sp.) | MIC Enterococcus faecalis (GC 2691) (Enterococcus sp.) | MIC Enterococcus faecalis (GC 3059) (Enterococcus sp.) | MIC Enterococcus faecalis (GC 4552) (Enterococcus sp.) | MIC Enterococcus faecalis (GC 4554) (Enterococcus sp.) | MIC Enterococcus faecalis (GC 6189) (Enterococcus sp.) | MIC Enterococcus faecium (GC 4556) (Enterococcus sp.) | MIC Enterococcus faecalis (ATCC 29212) (Enterococcus sp.; inoculum 5×10^5 CFU/mL, strain ATCC 29212) | MIC Enterococcus faecalis (GC 2242) (Enterococcus sp.; inoculum 5×10^5 CFU/mL, strain GC 2242) | MIC Enterococcus faecalis (GC 2691) (Enterococcus sp.; inoculum 5×10^5 CFU/mL, strain GC 2691) | MIC Enterococcus faecalis (GC 3059) (Enterococcus sp.; inoculum 5×10^5 CFU/mL, strain GC 3059) | MIC Enterococcus faecalis (GC 4552) (Enterococcus sp.; inoculum 5×10^5 CFU/mL, strain GC 4552) | MIC Enterococcus faecalis (GC 4554) (Enterococcus sp.; inoculum 5×10^5 CFU/mL, strain GC 4554) | MIC Enterococcus faecium (GC 4556) (Enterococcus sp.; inoculum 5×10^5 CFU/mL, strain GC 4556) | MIC Enterococcus faecalis (GC 6189) (Enterococcus sp.; inoculum 5×10^5 CFU/mL, strain GC 6189) | MIC Staphylococcus aureus-SMITH (GC 4543) (Staphylococcus sp.) | MIC Staphylococcus aureus-SMITH (GC 4543) (Staphylococcus sp.; strain GC 4543) | MIC Staphylococcus aureus (ATCC 29213) (Staphylococcus sp.; strain ATCC 29213) | MIC Staphylococcus aureus (GC 1131) (Staphylococcus sp.; strain GC 1131) | MIC Staphylococcus aureus (GC 3051) (Staphylococcus sp.; strain GC 3051) | MIC Staphylococcus aureus (GC 3053) (Staphylococcus sp.; strain GC 3053) | MIC Staphylococcus aureus (GC 4541) (Staphylococcus sp.; strain GC 4541) | MIC Staphylococcus aureus (GC 4542) (Staphylococcus sp.; strain GC 4542) | MIC Staphylococcus aureus (GC 4544) (Staphylococcus sp.; strain GC 4544) | MIC Staphylococcus aureus (GC 4545) (Staphylococcus sp.; strain GC 4545)
16 µg/mL: MIC Streptococcus agalactiae (GC 4564) (Streptococcus sp.) | MIC Streptococcus agalactiae (GC 4564) (Streptococcus sp.; inoculum 5×10^5 CFU/mL, strain GC 4564) | MIC Enterococcus faecalis (GC 4553) (Enterococcus sp.) | MIC Enterococcus faecium (GC 2243) (Enterococcus sp.) | MIC Enterococcus faecium (GC 4557) (Enterococcus sp.) | MIC Enterococcus faecium (GC 2243) (Enterococcus sp.; inoculum 5×10^5 CFU/mL, strain GC 2243) | MIC Enterococcus faecalis (GC 4553) (Enterococcus sp.; inoculum 5×10^5 CFU/mL, strain GC 4553) | MIC Enterococcus faecium (GC 4557) (Enterococcus sp.; inoculum 5×10^5 CFU/mL, strain GC 4557) | MIC Coagulase Negative Staphylococcus (GC 4547) (Staphylococcus sp.) | MIC Coagulase Negative Staphylococcus (GC 4548) (Staphylococcus sp.) | MIC Coagulase Negative Staphylococcus (GC 4549) (Staphylococcus sp.) | MIC Coagulase Negative Staphylococcus (GC 4551) (Staphylococcus sp.) | MIC Staphylococcus haemolyticus (GC 4546) (Staphylococcus sp.) | MIC Staphylococcus haemolyticus (GC 4546) (Staphylococcus sp.; strain GC 4546) | MIC Coagulase Negative Staphylococcus (GC 4547) (Staphylococcus sp.; strain GC 4547) | MIC Coagulase Negative Staphylococcus (GC 4548) (Staphylococcus sp.; strain GC 4548) | MIC Coagulase Negative Staphylococcus (GC 4549) (Staphylococcus sp.; strain GC 4549) | MIC Coagulase Negative Staphylococcus (GC 4551) (Staphylococcus sp.; strain GC 4551) | MIC Escherichia coli (GC 4560) (Escherichia coli)
8 µg/mL: MIC Streptococcus pneumoniae (ATCC 6301) (Streptococcus sp.) | MIC Streptococcus pneumoniae (GC 1894) (Streptococcus sp.) | MIC Streptococcus pneumoniae (GC 4565) (Streptococcus sp.) | MIC Streptococcus pyogenes (GC 4563) (Streptococcus sp.) | MIC Streptococcus pneumoniae (ATCC 6301) (Streptococcus sp.; inoculum 5×10^5 CFU/mL, strain ATCC 6301) | MIC Streptococcus pneumoniae (GC 1894) (Streptococcus sp.; inoculum 5×10^5 CFU/mL, strain GC 1894) | MIC Streptococcus pyogenes (GC 4563) (Streptococcus sp.; inoculum 5×10^5 CFU/mL, strain GC 4563) | MIC Streptococcus pneumoniae (GC 4565) (Streptococcus sp.; inoculum 5×10^5 CFU/mL, strain GC 4565) | MIC Enterococcus avium (GC 4558) (Enterococcus sp.) | MIC Enterococcus avium (GC 4558) (Enterococcus sp.; inoculum 5×10^5 CFU/mL, strain GC 4558)
>64 µg/mL: MIC Escherichia coli (ATCC 25922) (Escherichia coli) | MIC Escherichia coli (GC 4559) (Escherichia coli)
